# According to patent US11981686B2, “Urea compound having substituent” (DAIICHI SANKYO COMPANY, LIMITED, priority 2019, dated 2024):
# Target: SIRT6 enzyme (Homo sapiens, UniProt Q8N6T7)
# Assay: Measurement of deacetylation activity (SIRT6, AlphaLISA, H3K9(Ac) peptide)
# Type: biochemical
# Details: SIRT6 25 ng/mL, H3K9(Ac) biotin peptide 2 nM, NAD 10 μM, room temperature 30 minutes, duplicate
# Procedure: The reaction was performed in duplicate using a white 384-well plate (3824, Corning or 6008350, PerkinElmer) at a final reaction liquid volume of 20.1 μL. As a control for calculating the enzyme activity, the enzyme-added (DMSO (+)) and enzyme-free (DMSO (−)) wells were set at n=8. Test substances (examples of final concentrations: 0.046, 0.14, 0.41, 1.2, 3.7, 11, 33, and 100 μM) at a concentration of 100 times or 0.1 μL of DMSO was dispensed into the plate and 5 μL of SIRT6 enzyme (prepared by Daiichi Sankyo RD Novare Co., Ltd., final concentration: 25 ng/mL) diluted with an assay buffer (10 mM Tris-HCl pH of 8.0, 0.1% BSA, 0.01% Tween 20, 1 mM DTT, 12.5% Glycerol) was added thereto. The enzymatic reaction was started by adding 5 μL of a mixed solution [Lys(Ac)9]-Histone H3 (1-21)-NH2, H3K9 (Ac), biotin-labeled, amide (AnaSpec, AS-64190, final concentration: 2 nM) and β-nicotinamide adenine dinucleotide (Sigma-Aldrich, N8285-15VL, final concentration: 10 μM), and the reaction was performed at room temperature for 30 minutes. 10 μL of a mixed solution of nicotinamide (Sigma-Aldrich, 72340-100G, final concentration: 100 mM) prepared with AlphaLISA Epigenetics Buffer (PerkinElmer, AL008C), AlphaLISA Anti-unmodified Histone H3 Lysine 9/Lysine 27 (H3K9/K27) Acceptor Beads (PerkinElmer, AL138, final concentration: 10 μg/mL), and AlphaScreen Streptavidin Donor beads (PerkinElmer, 6760002, final concentration: 5 μg/mL) was added thereto, the reaction was performed at room temperature for 60 minutes and then stopped, and acetylation was detected. The emission intensity was measured by EnVision (PerkinElmer).
# The relative enzyme activity (%) of the test substance was calculated by the following equation. Relative enzyme activity (%)=[(emission intensity of test substance-added well−emission intensity of DMSO (−) well)/(emission intensity of DMSO (+) well−emission intensity of DMSO (−) well)]×100
# The EC150 (the concentration of the compound showing a relative enzyme activity of 150%) of the test substance was calculated based on Sigmoidal dose-response (variable slope) of GraphPad Prism (GraphPad Software) using the value of the relative enzyme activity (%) at each concentration, and the results are listed in Tables 1-1 to 1-5.
# SIRT6 enzyme, sequence (Q8N6T7 whole entry, species assumed): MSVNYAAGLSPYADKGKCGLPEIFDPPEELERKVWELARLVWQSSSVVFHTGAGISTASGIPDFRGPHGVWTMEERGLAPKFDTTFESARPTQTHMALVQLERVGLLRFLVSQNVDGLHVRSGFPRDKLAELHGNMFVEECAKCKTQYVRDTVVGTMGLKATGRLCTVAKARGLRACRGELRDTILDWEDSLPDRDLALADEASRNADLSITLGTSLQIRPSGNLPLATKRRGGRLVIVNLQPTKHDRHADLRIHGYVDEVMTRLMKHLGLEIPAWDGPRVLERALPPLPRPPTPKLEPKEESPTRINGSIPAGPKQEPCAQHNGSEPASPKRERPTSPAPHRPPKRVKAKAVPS
row,SMILES,EC150 (the concentration of the compound showing a relative enzyme activity of 150%) [μm]
1,"CNC(=O)Nc1nc2c(s1)C1CN(C(=O)OC)CC(C2)N1c1nnc(-c2cccc(C(=O)C3CC3)c2)o1 (stereo not drawn) [Example 123, Methyl 10-{5-[3-(cyclopropanecarbonyl)phenyl]-1,3,4-oxadiazol-2-yl}-2-[(methylcarbamoyl)amino]-4,7,8,9-tetrahydro-4,8-epimino[1,3]thiazolo[5,4-d]azocine-6(5H)-carboxylate]",0.66
2,"CC(C)(O)CNC(=O)Nc1nc2c(s1)CN(c1nc3cc(S(C)(=O)=O)ccc3o1)C(C)(C)C2 [Example 75, N-(2-hydroxy-2-methylpropyl)-N′-{5-[5-(methanesulfonyl)-1,3-benzoxazol-2-yl]-6,6-dimethyl-4,5,6,7-tetrahydro[1,3]thiazolo[5,4-c]pyridin-2-yl}urea]",0.94
3,"CNC(=O)Nc1nc2c(s1)C1COCC(C2)N1c1nnc(-c2cccc(C(F)F)c2)o1 (stereo not drawn) [Example 109, N-(10-{5-[3-(difluoromethyl)phenyl]-1,3,4-oxadiazol-2-yl}-4,7,8,9-tetrahydro-5H-4,8-epiminooxocino[5,4-d][1,3]thiazol-2-yl)-N′-methylurea]",1.4
4,"Cn1ccc(CNC(=O)Nc2nc3c(s2)[C@@H]2COC[C@H](C3)N2c2ncc(-c3cccc(OC(F)F)n3)o2)cc1=O [Example 178, N-[(4S,8S)-10-{5-[6-(difluoromethoxy)pyridin-2-yl]-1,3-oxazol-2-yl}-4,7,8,9-tetrahydro-5H-4,8-epiminooxocino[5,4-d][1,3]thiazol-2-yl]-N′-[(1-methyl-2-oxo-1,2-dihydropyridin-4-yl)methyl]urea]",0.1
5,"COc1cc(-c2noc(N3CCc4nc(NC(=O)NCc5nccn5C)sc4C3)n2)ccc1F [Example 100, N-{5-[3-(4-fluoro-3-methoxyphenyl)-1,2,4-oxadiazol-5-yl]-4,5,6,7-tetrahydro[1,3]thiazolo[5,4-c]pyridin-2-yl}-N′-[(1-methyl-1H-imidazol-2-yl)methyl]urea]",2.6
6,"O=C(Nc1nc2c(s1)[C@@H]1COC[C@H](C2)N1c1ncc(-c2cccc(OC(F)F)c2)o1)N[C@@H]1CCOC1 [Example 73, N-[(4S,8S)-10-{5-[3-(difluoromethoxy)phenyl]-1,3-oxazol-2-yl}-4,7,8,9-tetrahydro-5H-4,8-epiminooxocino[5,4-d][1,3]thiazol-2-yl]-N′-[(3R)-oxolan-3-yl]urea]",0.4
7,"CC(=O)N1CC2Cc3nc(NC(=O)N[C@@H]4CCOC4)sc3C(C1)N2c1nc(-c2ccc(F)cc2)no1 (stereo partly drawn) [Example 140, N-{6-acetyl-10-[3-(4-fluorophenyl)-1,2,4-oxadiazol-5-yl]-4,5,6,7,8,9-hexahydro-4,8-epimino[1,3]thiazolo[5,4-d]azocin-2-yl}-N′-[(3R)-oxolan-3-yl]urea]",0.16
8,"C[C@@H](O)CNC(=O)Nc1nc2c(s1)C1COCC(C2)N1c1nc(-c2ccc(F)cc2)no1 (stereo partly drawn) [Example 82, N-{10-[3-(4-fluorophenyl)-1,2,4-oxadiazol-5-yl]-4,7,8,9-tetrahydro-5H-4,8-epiminooxocino[5,4-d][1,3]thiazol-2-yl}-N′-[(2R)-2-hydroxypropyl]urea]",1.7
9,"CC(C)(O)CNC(=O)Nc1nc2c(s1)CN(c1nc(C34CC(C(F)F)(C3)C4)no1)CC2 [Example 96, N-(5-{3-[3-(difluoromethyl)bicyclo[1.1.1]pentan-1-yl]-1,2,4-oxadiazol-5-yl}-4,5,6,7-tetrahydro[1,3]thiazolo[5,4-c]pyridin-2-yl)-N′-(2-hydroxy-2-methylpropyl)urea]",1.6
10,"COc1cccc(-c2cc(N3[C@@H]4COC[C@H]3c3sc(NC(=O)N[C@@H]5CCOC5)nc3C4)no2)c1 [Example 164, N-{(4S,8S)-10-[5-(3-methoxyphenyl)-1,2-oxazol-3-yl]-4,7,8,9-tetrahydro-5H-4,8-epiminooxocino[5,4-d][1,3]thiazol-2-yl}-N′-[(3R)-oxolan-3-yl]urea]",2.6
11,"C[C@@H](O)CNC(=O)Nc1nc2c(s1)CN(c1cc(C3CCC(F)(F)CC3)on1)CC2 [Example 153, N-{5-[5-(4,4-difluorocyclohexyl)-1,2-oxazol-3-yl]-4,5,6,7-tetrahydro[1,3]thiazolo[5,4-c]pyridin-2-yl}-N′-[(2R)-2-hydroxypropyl]urea]",2.1
12,"C[C@H](CO)NC(=O)Nc1nc2c(s1)C1COCC(C2)N1c1nc(-c2ccc(F)cc2)no1 (stereo partly drawn) [Example 18, N-{10-[3-(4-fluorophenyl)-1,2,4-oxadiazol-5-yl]-4,7,8,9-tetrahydro-5H-4,8-epiminooxocino[5,4-d][1,3]thiazol-2-yl}-N′-[(2R)-1-hydroxypropan-2-yl]urea]",0.95
13,"O=C(NCc1ccnc(O)c1)Nc1nc2c(s1)[C@@H]1COC[C@H](C2)N1c1ncc(-c2cccc(OC(F)F)n2)o1 [Example 177, N-[(4S,8S)-10-{5-[6-(difluoromethoxy)pyridin-2-yl]-1,3-oxazol-2-yl}-4,7,8,9-tetrahydro-5H-4,8-epiminooxocino[5,4-d][1,3]thiazol-2-yl]-N′-[(2-hydroxypyridin-4-yl)methyl]urea]",0.28
14,"C[C@H](O)CNC(=O)Nc1nc2c(s1)C1COCC(C2)N1c1nc(-c2ccc(F)cc2)no1 (stereo partly drawn) [Example 81, N-{10-[3-(4-fluorophenyl)-1,2,4-oxadiazol-5-yl]-4,7,8,9-tetrahydro-5H-4,8-epiminooxocino[5,4-d][1,3]thiazol-2-yl}-N′-[(2S)-2-hydroxypropyl]urea]",1.4
15,"O=C(Nc1nc2c(s1)[C@@H]1COC[C@H](C2)N1c1nc(-c2ccc(F)cc2)no1)N[C@H]1C[C@H](O)C1 [Example 86, N-{(4S,8S)-10-[3-(4-fluorophenyl)-1,2,4-oxadiazol-5-yl]-4,7,8,9-tetrahydro-5H-4,8-epiminooxocino[5,4-d][1,3]thiazol-2-yl}-N′-[(1r,3S)-3-hydroxycyclobutyl]urea]",0.25
16,"CNC(=O)Nc1nc2c(s1)[C@@H]1COC[C@H](C2)N1c1nc(-c2ccc(F)cc2)no1 (single isomer, unassigned) [Example 13]",1.3
17,"[2H]C([2H])([2H])Oc1ccc2oc(N3[C@@H]4COC[C@H]3c3sc(NC(=O)N[C@H](C)CO)nc3C4)nc2c1 [Example 76, N-[(2R)-1-hydroxypropan-2-yl]-N′-[(4S,8S)-10-{5-[(^2H3)methyloxy]-1,3-benzoxazol-2-yl}-4,7,8,9-tetrahydro-5H-4,8-epiminooxocino[5,4-d][1,3]thiazol-2-yl]urea]",1.3
18,"O=C(Nc1nc2c(s1)CN(c1nc(C3(C(F)(F)F)CC3)no1)CC2)N[C@H]1C[C@H](O)C1 [Example 97, N-[(1r,3r)-3-hydroxycyclobutyl]-N′-(5-{3-[1-(trifluoromethyl)cyclopropyl]-1,2,4-oxadiazol-5-yl}-4,5,6,7-tetrahydro[1,3]thiazolo[5,4-c]pyridin-2-yl)urea]",1.3
19,"CNC(=O)Nc1nc2c(s1)[C@@H]1COC[C@H](C2)N1c1nc2cc(OC)ccc2o1 [Example 48, N-[(4S,8S)-10-(5-methoxy-1,3-benzoxazol-2-yl)-4,7,8,9-tetrahydro-5H-4,8-epiminooxocino[5,4-d][1,3]thiazol-2-yl]-N′-methylurea]",1.2
20,"C[C@H](CO)NC(=O)Nc1nc2c(s1)CN(c1nc(C3CCCC(F)(F)C3)no1)CC2 (stereo partly drawn) [Example 87, N-{5-[3-(3,3-difluorocyclohexyl)-1,2,4-oxadiazol-5-yl]-4,5,6,7-tetrahydro[1,3]thiazolo[5,4-c]pyridin-2-yl}-N′-[(2R)-1-hydroxypropan-2-yl]urea]",2.1
21,"C[C@@H](CO)NC(=O)Nc1nc2c(s1)[C@@H]1COC[C@H](C2)N1c1ncc(-c2cccc(C(F)F)c2)o1 [Example 168, N-[(4S,8S)-10-{5-[3-(difluoromethyl)phenyl]-1,3-oxazol-2-yl}-4,7,8,9-tetrahydro-5H-4,8-epiminooxocino[5,4-d][1,3]thiazol-2-yl]-N′-[(2S)-1-hydroxypropan-2-yl]urea]",0.35
